Tests used:
[1] = Solubility in aqueous buffer; format: physicochemical; conditions: pH 7.4, aqueous buffer
[2] = Analytical RP-HPLC retention as a measure of hydrophobicity; format: physicochemical; conditions: longer retention time compared to native EETI-II, Fig. 1

solubility [1]: > 500 µM
hydrophobicity by analytical RP-HPLC retention time (in words) [2]: more hydrophobic than EETI-II (CKP)
SMILES: CCCCCCCCCCCCCCCC(=O)NCCCC[C@H](N)C(=O)NCC(=O)N[C@@H](CO)C(=O)NCC(=O)N[C@@H](CO)C(=O)NCC(=O)N[C@H]1CSSC[C@@H]2NC(=O)CNC(=O)[C@H](C)NC(=O)[C@H](CC(C)C)NC(=O)[C@@H]3CSSC[C@@H](C(=O)NCC(=O)O)NC(=O)[C@H](Cc4ccccc4)NC(=O)CNC(=O)[C@H](CC(N)=O)NC(=O)[C@@H]4CCCN4C(=O)CNC(=O)[C@H](CSSC[C@H](NC(=O)[C@H](CCCNC(=N)N)NC(=O)[C@H](CCSC)NC(=O)[C@H](CC(C)C)NC(=O)[C@H]([C@@H](C)CC)NC(=O)[C@H](CCCNC(=N)N)NC(=O)[C@@H]4CCCN4C1=O)C(=O)N[C@@H](CCCCN)C(=O)N[C@@H](CCC(N)=O)C(=O)N[C@@H](CC(=O)O)C(=O)N[C@@H](CO)C(=O)N[C@@H](CC(=O)O)C(=O)N3)NC(=O)[C@H](C(C)C)NC2=O [CKP-C16, EETI-II-C16]

From article PMC9419673 (Nanoscale Advances, 2021)
